This is an account of results in patent US20090023784A1, “USE OF DEFERIPRONE AND METHODS TO TREAT AND/OR PREVENT FRIEDREICH ATAXIA RESULTING FROM INTRACELLULAR MISHANDLING OF IRON” (priority 2006, published 2009).

In one data set the test system is iron-loaded rats. As to the kind of experiment: Tissue iron content (ICP-MS) in iron-loaded rats treated with deferiprone. The format is in vivo. The settings on record: 100 mg/kg daily oral gavage. Here is the method:
As part of a larger study comparing iron chelators, we conducted histologic examination and electron microscopy (EM) of tissues following iron loading (100 mg/kg iron dose intraperitoneally twice weekly for four weeks) in rats (200-250 g) and treatment with deferiprone. Two control groups of rats were studied, one with no iron loading (“Naïve”) and the other with iron loading but no iron chelation.
Deferiprone was administered five times weekly (daily Monday to Friday). The animals received 89 doses in 127 days of 100 mg/kg daily, by oral gavage.
Iron content in micrograms per gram dry tissue±SD as determined by ICP-MS

Data set [1] in a line: 52-week twice daily oral (gavage) toxicity study of deferiprone in non-iron-loaded monkeys. Type of data set: in vivo, cynomolgus monkeys. Here is the method: As part of a larger study on the potential toxicity of iron chelators, we evaluated the toxicity of deferiprone in normal monkeys receiving 150 mg/kg/day (75 mg/kg twice daily) for 1 year.
To determine the toxicity of deferiprone in non-iron-loaded cynomolgus monkeys following twice daily oral (gavage) administration for 52 consecutive weeks, and to evaluate the regression of any toxic effect during a 4-week treatment-free period.
(§1) Groups of 4 male and 4 female monkeys (2 to 3 years old) were dosed by nasogastric intubation at (0.5% w/v aqueous carboxymethylcellulose vehicle) 75 mg/kg deferiprone twice daily (bid), with 6-8 hours between doses, for at least 364 days.
(§2) Clinical signs, body weights and food intake were assessed at frequent intervals. Ophthalmological and cardiovascular examinations were carried out in Weeks 17, 30, 43, 56 and 60. Hematology, coagulation, clinical chemistry and urine parameters were measured at baseline and in Weeks 8, 16, 30, 41, 56 and 60. Blood samples were taken on the first day of dosing, and in Weeks 17 and 56 for assessment of the serum deferiprone time-concentration profile. A full necropsy was performed on each animal, selected organs weighed, and histopathological examination of abnormalities and selected tissues conducted.

Data set [2] can be described thus: Serum deferiprone time-concentration profile (HPLC) in the 52-week monkey study. Type of data set: in vivo, cynomolgus monkeys. The settings on record: 75 mg/kg twice daily. Here is the method:
as §1, §2

Data set [3] concerns iron accumulation in dentate nuclei. As to the kind of experiment: MRI R2* measurement of brain iron in the pilot trial. The settings on record: 20-30 mg/kg/day oral, patients before 17.4±1.6, controls 13.7±0.6. The format is in vivo, human. An excerpt: Multiple-gradient echo sequence was used to monitor the iron concentrations in the brain (Waldvogel et al. Increased iron in the dentate nucleus of patients with Friedrich's ataxia. Ann Neurol 1999; 46:123-5), using a 1.5T Signa unit (GE Medical Systems, Milwaukee, Wisc., USA) using phase array head coil. Deep gray structures were localized by using a T2*-weighted echo-planar sequence (TR 3000 ms, TE 60 ms, eight averages, field of view: 24 cm, 256×224 matrix and slice thickness : 5 mm, 24 slices/1.1 min). A voxel englobing the left and right nuclei was positioned on the largest section of dentate nuclei (dimensions 6×3×2 cm^3). Data acquisition allowing iron monitoring was performed by using a single-slice multi-gradient-echo sequence (TR: 400 ms, flip angle: 50° to maximize gray matter signal, acquisition time: 3 minutes).
The determination of R2* was performed by using data of the multi-gradient echo sequence. In each pixel, the signals Si of the ten images obtained at echo times TEi (−i=1.10) were used to calculate the parameter R2* by adjustment of the signal decay according to the equation Si=So.exp (−R2*.TEi). A parametric image of local R2* values was calculated with the same spatial resolution than the native images. The mean value of R2* was calculated in various regions of interest, all determined by the same experimental radiologist. […]

Regarding `Cc1c(O)c(=O)ccn1C` [Deferiprone, 3-hydroxy-1,2-dimethylpyridin-4-one], the “Iron content, Skeletal Muscle” value in the data set on iron-loaded rats (89 doses in 127 days, ±SD, Fe-control 205 ± 109, Naive 50 ± 17) is on record as 146 ± 49 micrograms per gram dry tissue. For the same molecule, the “Iron content, Thyroid” value with iron-loaded rats (89 doses in 127 days, ±SD, Fe-control 583 ± 275, Naive 95 ± 13) is recorded as 425 ± 228 micrograms per gram dry tissue. Besides, the “Iron content, Kidney” value in the data set on iron-loaded rats (89 doses in 127 days, ±SD, Fe-control 801 ± 39, Naive 305 ± 80) is 642 ± 104 micrograms per gram dry tissue. Also, the “Iron content, Heart” value in the data set on iron-loaded rats (89 doses in 127 days, ±SD, Fe-control 1,088 ± 36, Naive 276 ± 25) is 586 ± 143 micrograms per gram dry tissue. Also, the “Iron content, Lung” value in the data set with iron-loaded rats (89 doses in 127 days, ±SD, Fe-control 1,234 ± 227, Naive 376 ± 45) is listed as 1065 ± 101 micrograms per gram dry tissue. For the same molecule, the “Iron content, Liver” value with iron-loaded rats (89 doses in 127 days, ±SD, Fe-control 11,534 ± 554, Naive 376 ± 127) is 7,780 ± 1,637 micrograms per gram dry tissue. In addition, in the data set on iron-loaded rats (iron-loaded rats), the “effect on iron levels in organs” value is “decreased the iron levels in the liver and heart and most other organs”. The “adverse effect (conclusion)” value in data set [1] (75 mg/kg twice daily orally for 52 weeks) is listed as “without significant adverse effect”. Further, the Clinical signs result in data set [1] (75 mg/kg twice daily, 52 weeks) is “incidental to administration of deferiprone by the IP route”. The “deferiprone-related effects on body weight, food intake, ophthalmology, cardiac conduction, blood pressure, heart rate, hematology or urine composition” value in data set [1] (75 mg/kg twice daily, oral gavage, 52 weeks) is reported as “no deferiprone-related effects”. The microscopic findings result in data set [1] (75 mg/kg twice daily, oral gavage, 52 weeks, histopathology) is “No microscopic findings”. In addition, the macroscopic findings entry in data set [1] (75 mg/kg twice daily, oral gavage, 52 weeks, necropsy) is “No macroscopic findings related to deferiprone”. Further, in data set [2], the “peak concentration relative to thalassemia patients treated with 25 mg/kg three times daily” value was “about three times”. Further, in data set [2] (HPLC), the “deferiprone detectable in serum for up to” value is “up to 7 h”. Besides, the “deferiprone detectable in serum from (time after dosing)” value in data set [2] (HPLC) was no less than 0.5 h. This molecule also showed a half-life in data set [2] (both sexes, cynomolgus monkey, serum, oral, range in individuals) of 0.35 to 2.39 h. Also, the “relaxation rate R2* in dentate nuclei” value in data set [3] (after one month) was 16.6 ± 1.3 s⁻¹; in data set [3] (after two months), 15.9 ± 0.6 s⁻¹.
